How the values were obtained:
HIV-I (GB8) = assay: Pretreatment of JM cells and block of HIV-I (GB8) infection (Example IV); conditions: pretreated overnight at 20 μg/mL; for MEAN SYNCYTIA: 2 days; for P24 % / SYNCYTIA %: % of control, 2880 min
Description: JM cells were pretreated overnight at 37° C. with different compounds at 20 μg/mL or left untreated. The cells were washed 3 times in RPMI medium and then infected with HIV-I (GB8) for 2 hours at room temperature. The cells were again washed 3 times in RPMI medium and resuspended in fresh medium prior to being distributed into duplicate wells and incubated at 37° C. After 2 days syncytia were scored and the cell free supernatant fluid harvested and assayed for P24 viral core antigen using the Coulter™ HIV antigen assay.

HIV strain RF = assay: Ability to prevent virus-induced cell death using MT4 cells and strain RF (Example III); type: cell-based; conditions: MT4 cells, 7 days, MTT, 10080 min
Description: (§1) Various oligomers were dissolved in RPMI and were then assayed for anti-HIV activity by making doubling dilutions of the solutions across a 96 well microtitre plate. To each well were then added 5×10^4 cells and 100 TCID50 of virus and the plates incubated at 37° C. for 7 days. MTT was added to each well and the plates incubated for a further 2 hours. The blue formazan crystals were dissolved using acidic isopropanol, and the absorbance measured at 540 nm.

MT4 cells = assay: Toxicity to MT4 cells (TD50, Table IV, MTT); type: cell-based; conditions: MT4 cells, 7 days, MTT
Description: as §1

GB8 virus in JM cells = assay: Virus infection of JM cells with GB8 in the presence of test compounds: syncytia and P24 (Example II); conditions: for SYNCYTIA % / P24 %: % of control; for SYNCYTIA %: 2880 min; for P24 %: 5760 min
Description: Virus infection of JM cells was carried out in the presence of different concentrations of test compounds. JM cells (1×10^5) and 50-100 syncytial forming units of virus (GB8) were added to duplicate wells of a tissue culture plate containing 1 mL volumes of growth medium with or without drug. The plate was incubated for 2 days at 37° C. and then scored for the presence of syncytia. At the same time the cells were washed and the growth medium replaced. After a further two days incubation, the cell free supernatant fluids were harvested and assayed for levels of P24 viral core antigen using the Coulter™ HIV Antigen assay.

HIV-I, GB8 = assay: Ability to prevent syncytia formation and expression of P24 viral core antigen using JM cells and GB8 virus strain (Example I); type: cell-based; conditions: for P24 % CONTROL: 4320 min; for SYNCYTIA: after 3 days
Description: The virus was first incubated with an oligomer for 15 minutes and then the cells were added. After 2 hours adsorption, the virus innoculum was removed and the cells were washed three times to remove traces of input virus. Antiviral activity was determined after 3 days incubation by plotting the mean number of syncytia found in quadruple cultures against log10 concentration of anionic polymer or of other test compounds. The potency of an oligomer was also measured by assaying viral core antigen (P24 test-Abbott) in the supernatant fluid. Heparin, dextran sulfate, rs CD4, ATZ and/or ddC data, when included in any of the following Tables, are provided as positive controls.

With Dextran Sulfate [reference compound] the P24 (HIV-I (GB8)) was 28710 pg/mL, the “MEAN SYNCYTIA” value (HIV-I (GB8)) was 184 and the P24 % (HIV-I (GB8)) was 101%. For the same substance, the SYNCYTIA % (HIV-I (GB8)) was 155%.
“poly[imino(2,5-disulfo-1,4-phenylene)iminocarbonyl], alpha-{[(4-methylphenyl)amino]carbonyl}-omega-[(4-methylphenyl)amino]- [Example 3A]” was tested, and the ED50 (HIV strain RF) was greater than 10 µg/mL, the TD50 (MT4 cells) was greater than 100 µg/mL and the “SYNCYTIA (2 DAYS) MEAN” value (GB8 virus in JM cells; Table II, 0.6 μg/mL) was 51. The SYNCYTIA % (GB8 virus in JM cells; Table II, 0.6 μg/mL) was 120%, the P24 (GB8 virus in JM cells; Table II, 1.25 μg/mL) was 4.3 × 10^5 units/mL and the “SYNCYTIA (2 DAYS) MEAN” value (GB8 virus in JM cells; Table II, 1.25 μg/mL) was 20. The SYNCYTIA % (GB8 virus in JM cells; Table II, 1.25 μg/mL) was 48%, the P24 % (GB8 virus in JM cells; Table II, 1.25 μg/mL) was 100% and the P24 (GB8 virus in JM cells; Table II, 2.5 μg/mL) was 2.5 × 10^5 units/mL. For the same substance, the “SYNCYTIA (2 DAYS) MEAN” value (GB8 virus in JM cells; Table II, 2.5 μg/mL) was 38, the SYNCYTIA % (GB8 virus in JM cells; Table II, 2.5 μg/mL) was 90% and the P24 % (GB8 virus in JM cells; Table II, 2.5 μg/mL) was 69%. For the same substance, the P24 (GB8 virus in JM cells; Table II, 5 μg/mL) was 3.6 × 10^5 units/mL, the “SYNCYTIA (2 DAYS) MEAN” value (GB8 virus in JM cells; Table II, 5 μg/mL) was 15 and the SYNCYTIA % (GB8 virus in JM cells; Table II, 5 μg/mL) was 36%. For the same substance, the P24 % (GB8 virus in JM cells; Table II, 5 μg/mL) was 100%, the P24 (GB8 virus in JM cells; Table II, 10 μg/mL) was 4.1 × 10^4 units/mL and the “SYNCYTIA (2 DAYS) MEAN” value (GB8 virus in JM cells; Table II, 10 μg/mL) was 3. The SYNCYTIA % (GB8 virus in JM cells; Table II, 10 μg/mL) was 7%, the P24 % (GB8 virus in JM cells; Table II, 10 μg/mL) was 11% and the “SYNCYTIA (2 DAYS) MEAN” value (GB8 virus in JM cells; Table II, 20 μg/mL) was 5. The SYNCYTIA % (GB8 virus in JM cells; Table II, 20 μg/mL) was 12%, the P24 (HIV-I (GB8)) was 26880 pg/mL and the “MEAN SYNCYTIA” value (HIV-I (GB8)) was 153. For the same substance, the P24 % (HIV-I (GB8)) was 95% and the SYNCYTIA % (HIV-I (GB8)) was 129%.
“poly[imino(2,5-disulfo-1,4-phenylene)iminocarbonyl], alpha-{[(4-methylphenyl)amino]carbonyl}-omega-[(4-methylphenyl)amino]- [Example 3B]” gave an ED50 (HIV strain RF) of 1.7 µg/mL and a TD50 (MT4 cells) greater than 100 µg/mL.
For “poly[imino(3-sulfo-1,4-phenylene)-1,2-ethenediyl-(2-sulfo-1,4-phenylene)iminocarbonyl], alpha-{[(4-methylphenyl)aminocarbonyl}-omega-[(4-methylphenyl)amino- [Example 2A]”, the ED50 (HIV strain RF) was 1.9 µg/mL and the TD50 (MT4 cells) was greater than 100 µg/mL.
Substance “poly[imino(3-sulfo-1,4-phenylene)-1,2-ethenediyl-(2-sulfo-1,4-phenylene)iminocarbonyl], alpha-{[(4-methylphenyl)aminocarbonyl}-omega-[(4-methylphenyl)amino- [Example 2B]” has an ED50 (HIV strain RF) of 2.5 µg/mL and a TD50 (MT4 cells) greater than 100 µg/mL.
In the case of “poly{imino[2,2'-disulfo(1,1'-biphenyl)-4,4'-diyl]iminocarbonyl-1,4-phenylenecarbonyl}, alpha-{[(4-methylphenyl)amino]carbonyl}-omega-[(4-methylphenyl)amino]- [Example 8A]”, the ED50 (HIV strain RF) is reported as 1.5 µg/mL, the TD50 (MT4 cells) is reported as greater than 100 µg/mL and the P24 (GB8 virus in JM cells; Table II, 1 μg/mL) is reported as 4.3 × 10^4 units/mL. For the same substance, the “SYNCYTIA (2 DAYS) MEAN” value (GB8 virus in JM cells; Table II, 1 μg/mL) was 3, the SYNCYTIA % (GB8 virus in JM cells; Table II, 1 μg/mL) was 7% and the P24 % (GB8 virus in JM cells; Table II, 1 μg/mL) was 12%. For the same substance, the P24 (GB8 virus in JM cells; Table II, 3 μg/mL) was 4.4 × 10^4 units/mL, the “SYNCYTIA (2 DAYS) MEAN” value (GB8 virus in JM cells; Table II, 3 μg/mL) was 0 and the SYNCYTIA % (GB8 virus in JM cells; Table II, 3 μg/mL) was 0%. For the same substance, the P24 % (GB8 virus in JM cells; Table II, 3 μg/mL) was 12%, the “SYNCYTIA (2 DAYS) MEAN” value (GB8 virus in JM cells; Table II, 10 μg/mL) was 0 and the SYNCYTIA % (GB8 virus in JM cells; Table II, 10 μg/mL) was 0%. The “SYNCYTIA (2 DAYS) MEAN” value (GB8 virus in JM cells; Table II, 30 μg/mL) was 0, the SYNCYTIA % (GB8 virus in JM cells; Table II, 30 μg/mL) was 0% and the “SYNCYTIA (2 DAYS) MEAN” value (GB8 virus in JM cells; Table II, 100 μg/mL) was 0. For the same substance, the SYNCYTIA % (GB8 virus in JM cells; Table II, 100 μg/mL) was 0%, the P24 (GB8 virus in JM cells; Table III, 5 μg/mL) was 268599 pg/mL and the “SYNCYTIA MEAN” value (GB8 virus in JM cells; Table III, 5 μg/mL) was 35. It also gave an SYNCYTIA % (GB8 virus in JM cells; Table III, 5 μg/mL) of 51%, a P24 % (GB8 virus in JM cells; Table III, 5 μg/mL) of 81% and a P24 (GB8 virus in JM cells; Table III, 50 μg/mL) of 11600 pg/mL. The “SYNCYTIA MEAN” value (GB8 virus in JM cells; Table III, 50 μg/mL) was 0, the P24 % (GB8 virus in JM cells; Table III, 50 μg/mL) was 3.5% and the “SYNCYTIA MEAN” value (GB8 virus in JM cells; Table III, 500 μg/mL) was 0.
“poly{imino[2,2'-disulfo(1,1'-biphenyl)-4,4'-diyl]iminocarbonyl-1,4-phenylenecarbonyl}, alpha-{[(4-methylphenyl)amino]carbonyl}-omega-[(4-methylphenyl)amino]- [Example 8B]” showed an ED50 (HIV strain RF) of 2.1 µg/mL and a TD50 (MT4 cells) greater than 100 µg/mL.
With “poly{imino[2,2'-disulfo(1,1'-biphenyl)-4,4'-diyl]iminocarbonyl-1,4-phenylenecarbonyl}, alpha-{[(4-methylphenyl)amino]carbonyl}-omega-[(4-methylphenyl)amino]- [Example 8C]” the ED50 (HIV strain RF) was 2.2 µg/mL and the TD50 (MT4 cells) was greater than 100 µg/mL.
“poly{imino[2,2'-disulfo(1,1'-biphenyl)-4,4'-diyl]iminocarbonyl}, alpha-{[(4-methylphenyl)amino]carbonyl}-omega[(4-methylphenyl)amino]- [Example 1B]” was tested, and the ED50 (HIV strain RF) was 2.2 µg/mL, the TD50 (MT4 cells) was greater than 100 µg/mL and the “SYNCYTIA (2 DAYS) MEAN” value (GB8 virus in JM cells; Table II, 0.01 μg/mL) was 47. The SYNCYTIA % (GB8 virus in JM cells; Table II, 0.01 μg/mL) was 112%, the P24 (GB8 virus in JM cells; Table II, 0.03 μg/mL) was 4.1 × 10^5 units/mL and the “SYNCYTIA (2 DAYS) MEAN” value (GB8 virus in JM cells; Table II, 0.03 μg/mL) was 42. For the same substance, the SYNCYTIA % (GB8 virus in JM cells; Table II, 0.03 μg/mL) was 100%, the P24 % (GB8 virus in JM cells; Table II, 0.03 μg/mL) was 100% and the P24 (GB8 virus in JM cells; Table II, 0.1 μg/mL) was 4.4 × 10^5 units/mL. The “SYNCYTIA (2 DAYS) MEAN” value (GB8 virus in JM cells; Table II, 0.1 μg/mL) was 25, the SYNCYTIA % (GB8 virus in JM cells; Table II, 0.1 μg/mL) was 58% and the P24 % (GB8 virus in JM cells; Table II, 0.1 μg/mL) was 100%. For the same substance, the P24 (GB8 virus in JM cells; Table II, 0.3 μg/mL) was 3.8 × 10^4 units/mL, the “SYNCYTIA (2 DAYS) MEAN” value (GB8 virus in JM cells; Table II, 0.3 μg/mL) was 1 and the SYNCYTIA % (GB8 virus in JM cells; Table II, 0.3 μg/mL) was 2%. For the same substance, the P24 % (GB8 virus in JM cells; Table II, 0.3 μg/mL) was 11%, the P24 (GB8 virus in JM cells; Table II, 1 μg/mL) was 1.6 × 10^3 units/mL and the “SYNCYTIA (2 DAYS) MEAN” value (GB8 virus in JM cells; Table II, 1 μg/mL) was 0. For the same substance, the SYNCYTIA % (GB8 virus in JM cells; Table II, 1 μg/mL) was 0%, the P24 % (GB8 virus in JM cells; Table II, 1 μg/mL) was 0.4% and the “SYNCYTIA (2 DAYS) MEAN” value (GB8 virus in JM cells; Table II, 3 μg/mL) was 0. The SYNCYTIA % (GB8 virus in JM cells; Table II, 3 μg/mL) was 0%, the “SYNCYTIA (2 DAYS) MEAN” value (GB8 virus in JM cells; Table II, 10 μg/mL) was 0 and the SYNCYTIA % (GB8 virus in JM cells; Table II, 10 μg/mL) was 0%. For the same substance, the P24 (HIV-I, GB8; 0.6 μg/mL) was 32820 pg/mL, the “P24 % CONTROL” value (HIV-I, GB8; 0.6 μg/mL) was 0.1% and the P24 (HIV-I, GB8; 1.25 μg/mL) was 35890 pg/mL. For the same substance, the “P24 % CONTROL” value (HIV-I, GB8; 1.25 μg/mL) was less than 0.1%, the P24 (HIV-I, GB8; 2.5 μg/mL) was 365 pg/mL and the “P24 % CONTROL” value (HIV-I, GB8; 2.5 μg/mL) was less than 0.1%. For the same substance, the SYNCYTIA (HIV-I, GB8; 2.5 μg/mL) was 0, the P24 (HIV-I, GB8; 5.0 μg/mL) was 465 pg/mL and the “P24 % CONTROL” value (HIV-I, GB8; 5.0 μg/mL) was less than 0.1%. For the same substance, the SYNCYTIA (HIV-I, GB8; 5.0 μg/mL) was 0, the P24 (HIV-I (GB8)) was 2790 pg/mL and the “MEAN SYNCYTIA” value (HIV-I (GB8)) was 52. It also gave a P24 % (HIV-I (GB8)) of 10% and an SYNCYTIA % (HIV-I (GB8)) of 44%.
